Species: Rattus norvegicus
Test: DrugMatrix - Regimen: Daily Repeat
Assay type: toxicity, organism-based, Sprague-Dawley
Design: regimen Daily Repeat, gender Male, age 6-8 weeks
Details: in vivo, po, route oral GAVAGE, vehicle 100 % SALINE
[1] = 0 mg/kg, 72 h, tissue Blood, dose level Control, time 3 day
[2] = 0 mg/kg, 72 h, tissue Plasma, dose level Control, time 3 day
[3] = 0 mg/kg, 120 h, tissue Blood, dose level Control, time 5 day
[4] = 0 mg/kg, 120 h, tissue Plasma, dose level Control, time 5 day
[5] = 200 mg/kg, 72 h, tissue Blood, dose level Low, time 3 day
[6] = 200 mg/kg, 72 h, tissue Plasma, dose level Low, time 3 day

LEAD(IV) ACETATE
ABSOLUTE BASOPHIL [1]: 0 CELLS/uL
ABSOLUTE EOSINOPHIL [1]: 37 CELLS/uL
ABSOLUTE LYMPHOCYTE [1]: 12359.33 CELLS/uL
ABSOLUTE MONOCYTE [1]: 122.67 CELLS/uL
ABSOLUTE SEGMENTED NEUTROPHIL [1]: 847.67 CELLS/uL
BASOPHIL [1]: 0%
EOSINOPHIL [1]: 0.33%
ERYTHROCYTE COUNT [1]: 5.75 x10E6/uL
HEMATOCRIT [1]: 36.08%
LEUKOCYTE COUNT [1]: 13.37 x10E3/uL
MEAN CORPUSCULAR HEMOGLOBIN CONCENTRATION [1]: 38.98 G/DL
MONOCYTE [1]: 1%
NEUTROPHIL [1]: 6.17%
NUCLEATED RED BLOOD CELLS [1]: 0.17 /100WBC
PLATELET COUNT [1]: 1202.17 x10E3/uL
ALANINE AMINOTRANSFERASE [2]: 50.67 u/L
ALKALINE PHOSPHATASE [2]: 356.33 u/L
ASPARTATE AMINOTRANSFERASE [2]: 78.17 u/L
BLOOD UREA NITROGEN [2]: 14.17 mg/dL
CARBON DIOXIDE [2]: 31.33 mmol/L
CHLORIDE [2]: 98.5 MEQ/L
CHOLESTEROL [2]: 76.5 mg/dL
CREATINE PHOSPHOKINASE [2]: 248.33 u/L
CREATININE [2]: 0.2 mg/dL
LACTATE DEHYDROGENASE [2]: 107 u/L
LIPASE [2]: 9.83 u/L
PHOSPHORUS [2]: 12.8 mg/dL
POTASSIUM [2]: 6.75 MEQ/L
TOTAL BILIRUBIN [2]: 0.18 mg/dL
TOTAL PROTEIN [2]: 5.98 G/DL
URIC ACID [2]: 1.42 mg/dL
ABSOLUTE BASOPHIL [3]: 0 CELLS/uL
ABSOLUTE EOSINOPHIL [3]: 0 CELLS/uL
ABSOLUTE LYMPHOCYTE [3]: 8681.17 CELLS/uL
ABSOLUTE MONOCYTE [3]: 79.83 CELLS/uL
ABSOLUTE SEGMENTED NEUTROPHIL [3]: 689 CELLS/uL
BASOPHIL [3]: 0%
EOSINOPHIL [3]: 0%
ERYTHROCYTE COUNT [3]: 5.49 x10E6/uL
HEMATOCRIT [3]: 33.55%
HEMOGLOBIN [3]: 13.1 G/DL
LEUKOCYTE COUNT [3]: 9.45 x10E3/uL
LYMPHOCYTE [3]: 92.33%
MEAN CORPUSCULAR HEMOGLOBIN [3]: 23.92 pg
MEAN CORPUSCULAR HEMOGLOBIN CONCENTRATION [3]: 39.07 G/DL
MONOCYTE [3]: 0.67%
NEUTROPHIL [3]: 7%
NUCLEATED RED BLOOD CELLS [3]: 0.17 /100WBC
PLATELET COUNT [3]: 1001.17 x10E3/uL
ALANINE AMINOTRANSFERASE [4]: 49.33 u/L
ALKALINE PHOSPHATASE [4]: 300.33 u/L
ASPARTATE AMINOTRANSFERASE [4]: 83.5 u/L
BLOOD UREA NITROGEN [4]: 16 mg/dL
CHLORIDE [4]: 100.5 MEQ/L
CHOLESTEROL [4]: 74.33 mg/dL
CREATINE PHOSPHOKINASE [4]: 489.67 u/L
CREATININE [4]: 0.35 mg/dL
GLUCOSE [4]: 151 mg/dL
LACTATE DEHYDROGENASE [4]: 133.67 u/L
LIPASE [4]: 11.17 u/L
PHOSPHORUS [4]: 10.88 mg/dL
POTASSIUM [4]: 5.5 MEQ/L
SODIUM [4]: 145.7 MEQ/L
TOTAL BILIRUBIN [4]: 0.2 mg/dL
TOTAL PROTEIN [4]: 6.05 G/DL
URIC ACID [4]: 0.68 mg/dL
ABSOLUTE BASOPHIL [5]: 0 CELLS/uL
ABSOLUTE EOSINOPHIL [5]: 125.67 CELLS/uL
ABSOLUTE LYMPHOCYTE [5]: 10005 CELLS/uL
ABSOLUTE MONOCYTE [5]: 182.33 CELLS/uL
ABSOLUTE SEGMENTED NEUTROPHIL [5]: 487 CELLS/uL
BASOPHIL [5]: 0%
EOSINOPHIL [5]: 1%
ERYTHROCYTE COUNT [5]: 5.79 x10E6/uL
HEMATOCRIT [5]: 34.9%
HEMOGLOBIN [5]: 13.63 G/DL
LEUKOCYTE COUNT [5]: 10.8 x10E3/uL
LYMPHOCYTE [5]: 92.67%
MEAN CORPUSCULAR HEMOGLOBIN [5]: 23.53 pg
MEAN CORPUSCULAR HEMOGLOBIN CONCENTRATION [5]: 39.07 G/DL
MEAN CORPUSCULAR VOLUME [5]: 60.3 fL
NEUTROPHIL [5]: 5%
NUCLEATED RED BLOOD CELLS [5]: 0 /100WBC
PLATELET COUNT [5]: 964.33 x10E3/uL
ALANINE AMINOTRANSFERASE [6]: 55.67 u/L
ALKALINE PHOSPHATASE [6]: 341.67 u/L
ASPARTATE AMINOTRANSFERASE [6]: 108 u/L
BLOOD UREA NITROGEN [6]: 12.67 mg/dL
CARBON DIOXIDE [6]: 29.33 mmol/L
CHLORIDE [6]: 100 MEQ/L
CHOLESTEROL [6]: 73.67 mg/dL
CREATINE PHOSPHOKINASE [6]: 327.67 u/L
CREATININE [6]: 0.26 mg/dL
GLUCOSE [6]: 150.33 mg/dL
LACTATE DEHYDROGENASE [6]: 126.67 u/L
LIPASE [6]: 14.33 u/L
POTASSIUM [6]: 6.03 MEQ/L
TOTAL BILIRUBIN [6]: 0.0667 mg/dL
TOTAL PROTEIN [6]: 5.93 G/DL
URIC ACID [6]: 1.2 mg/dL
